According to patent US8455507B2, “Aminopyrimidines useful as kinase inhibitors” (Vertex Pharmaceuticals Incorporated, priority 2007, dated 2013):

Key:
Colo205 cells = test: Analysis of Cell Proliferation and Viability; assay type: cell-based; details: Homo sapiens, COLO 205, 72 hours, lower bound 100 nM, upper bound 1 uM nM [sic], read-out: IC50 values after 72 hours
Description: Compounds were screened for their ability to inhibit cell proliferation and their effects on cell viability using Colo205 cells obtained from ECACC and using the assay shown below.
Colo205 cells were seeded in 96 well plates and serially diluted compound was added to the wells in duplicate. Control groups included untreated cells, the compound diluent (0.1% DMSO alone) and culture medium without cells. The cells were then incubated for 72 or 96 hrs at 37 C in an atmosphere of 5% CO2/95% humidity.
To measure proliferation, 3 h prior to the end of the experiment 0.5 μCi of 3H thymidine was added to each well. Cells were then harvested and the incorporated radioactivity counted on a Wallac microplate beta-counter. Cell viability was assessed using Promega CellTiter 96AQ to measure MTS conversion. Dose response curves were calculated using either Prism 3.0 (GraphPad) or SoftMax Pro 4.3.1 LS (Molecular Devices) software.

Aurora-2 (Aurora A) = target: T1, Aurora-2 (Aurora A) (Homo sapiens, UniProt O14965); test: Aurora-2 (Aurora A) Inhibition Assay (coupled enzyme assay); assay type: biochemical; details: 400 μM ATP, 40 nM Aurora-2, 30° C.; read-out: inhibit Aurora A, Ki
T1 sequence (O14965 1-403): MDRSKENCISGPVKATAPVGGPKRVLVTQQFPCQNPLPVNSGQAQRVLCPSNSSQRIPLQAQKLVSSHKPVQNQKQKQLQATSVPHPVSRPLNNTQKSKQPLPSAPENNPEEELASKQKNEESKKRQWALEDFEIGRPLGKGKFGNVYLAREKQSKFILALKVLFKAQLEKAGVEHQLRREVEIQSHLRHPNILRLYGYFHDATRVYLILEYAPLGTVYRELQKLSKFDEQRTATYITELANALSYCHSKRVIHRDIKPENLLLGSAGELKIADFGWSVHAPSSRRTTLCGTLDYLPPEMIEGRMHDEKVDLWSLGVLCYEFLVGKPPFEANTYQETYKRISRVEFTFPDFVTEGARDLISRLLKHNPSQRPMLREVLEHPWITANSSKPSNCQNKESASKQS
Description: Compounds were screened for their ability to inhibit Aurora-2 using a standard coupled enzyme assay (Fox et al., Protein Sci., (1998) 7, 2249). Assays were carried out in a mixture of 100 mM Hepes (pH7.5), 10 mM MgCl2, 1 mM DTT, 25 mM NaCl, 2.5 mM phosphoenolpyruvate, 300 μM NADH, 30 μg/ml pyruvate kinase and 10 μg/ml lactate dehydrogenase. Final substrate concentrations in the assay were 400 μM ATP (Sigma Chemicals) and 570 μM peptide (Kemptide, American Peptide, Sunnyvale, Calif.). Assays were carried out at 30° C. and in the presence of 40 nM Aurora-2.
An assay stock buffer solution was prepared containing all of the reagents listed above, with the exception of Aurora-2 and the test compound of interest. 55 μl of the stock solution was placed in a 96 well plate followed by addition of 2 μl of DMSO stock containing serial dilutions of the test compound (typically starting from a final concentration of 7.5 μM). The plate was preincubated for 10 minutes at 30° C. and the reaction initiated by addition of 10 μl of Aurora-2. Initial reaction rates were determined with a Molecular Devices SpectraMax Plus plate reader over a 10 minute time course. IC50 and Ki data were calculated from non-linear regression analysis using the Prism software package (GraphPad Prism version 3.0cx for Macintosh, GraphPad Software, San Diego Calif., USA).

Aurora-1 (Aurora B) = Aurora-1 (Aurora B) (Homo sapiens, UniProt Q96GD4); test: Aurora-1 (Aurora B) Inhibition Assay (Radiometric); assay type: biochemical; details: 800 μM ATP, 25° C., read-out: inhibit Aurora A, Ki (printed under the Aurora-1 (Aurora B) assay)
Description: An assay buffer solution was prepared which consisted of 25 mM HEPES (pH 7.5), 10 mM MgCl2, 0.1% BSA and 10% glycerol. A 22 nM Aurora-B solution, also containing 1.7 mM DTT and 1.5 mM Kemptide (LRRASLG), was prepared in assay buffer. To 22 μL of the Aurora-B solution, in a 96-well plate, was added 2 μl of a compound stock solution in DMSO and the mixture allowed to equilibrate for 10 minutes at 25° C. The enzyme reaction was initiated by the addition of 16 μl stock [γ-^33P]-ATP solution (˜20 nCi/μL) prepared in assay buffer, to a final assay concentration of 800 μM. The reaction was stopped after 3 hours by the addition of 16 μL 500 mM phosphoric acid and the levels of ^33P incorporation into the peptide substrate were determined by the following method.
A phosphocellulose 96-well plate (Millipore, Cat no. MAPHNOB50) was pre-treated with 100 μL of a 100 mM phosphoric acid prior to the addition of the enzyme reaction mixture (40 μL). […] Levels of non-enzyme catalyzed background radioactivity were determined by adding 16 μL of the 500 mM phosphoric acid to control wells, containing all assay components (which acts to denature the enzyme), prior to the addition of the [γ-^33P]-ATP solution. Levels of enzyme catalyzed ^33P incorporation were calculated by subtracting mean background counts from those measured at each inhibitor concentration. […]

[1] = target: N-terminally truncated (Δ27) Abl kinase (Homo sapiens, UniProt P00519); test: Abl Kinase Activity Inhibition Assay (coupled enzyme system); assay type: biochemical; details: 110 μM ATP, 21 nM Abl kinase, 30° C.; read-out: inhibit Abl kinase, Ki value
Description: Compounds were screened for their ability to inhibit N-terminally truncated (Δ27) Abl kinase activity using a standard coupled enzyme system (Fox et al., Protein Sci., 7, pp. 2249 (1998)). Reactions were carried out in a solution containing 100 mM HEPES (pH 7.5), 10 mM MgCl2, 25 mM NaCl, 300 μM NADH, 1 mM DTT and 3% DMSO. Final substrate concentrations in the assay were 110 μM ATP (Sigma Chemicals, St Louis, Mo.) and 70 μM peptide (EAIYAAPFAKKK, American Peptide, Sunnyvale, Calif.). Reactions were carried out at 30° C. and 21 nM Abl kinase. Final concentrations of the components of the coupled enzyme system were 2.5 mM phosphoenolpyruvate, 200 μM NADH, 60 μg/ml pyruvate kinase and 20 μg/ml lactate dehydrogenase.
An assay stock buffer solution was prepared containing all of the reagents listed above with the exception of ATP and the test compound of interest. The assay stock buffer solution (60 μl) was incubated in a 96 well plate with 2 μl of the test compound of interest at final concentrations typically spanning 0.002 μM to 30 μM at 30° C. for 10 min. […] Rates of reaction were obtained using a Molecular Devices Spectramax plate reader (Sunnyvale, Calif.) over 10 min at 30° C. The Ki values were determined from the residual rate data as a function of inhibitor concentration using nonlinear regression (Prism 3.0, Graphpad Software, San Diego, Calif.).

Sequence of Aurora-1 (Aurora B) (Q96GD4 whole entry): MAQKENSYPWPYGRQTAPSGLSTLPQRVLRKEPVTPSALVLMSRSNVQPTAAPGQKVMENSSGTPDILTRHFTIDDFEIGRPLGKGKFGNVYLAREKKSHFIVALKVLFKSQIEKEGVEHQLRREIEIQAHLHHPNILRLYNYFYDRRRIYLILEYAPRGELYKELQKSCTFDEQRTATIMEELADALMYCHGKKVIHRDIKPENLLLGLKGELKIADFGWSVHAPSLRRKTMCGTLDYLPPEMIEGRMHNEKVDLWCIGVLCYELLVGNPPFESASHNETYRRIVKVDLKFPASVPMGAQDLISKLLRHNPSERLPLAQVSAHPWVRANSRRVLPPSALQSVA
Sequence of N-terminally truncated (Δ27) Abl kinase (P00519 whole entry, stated change not applied, the tested form may be a part): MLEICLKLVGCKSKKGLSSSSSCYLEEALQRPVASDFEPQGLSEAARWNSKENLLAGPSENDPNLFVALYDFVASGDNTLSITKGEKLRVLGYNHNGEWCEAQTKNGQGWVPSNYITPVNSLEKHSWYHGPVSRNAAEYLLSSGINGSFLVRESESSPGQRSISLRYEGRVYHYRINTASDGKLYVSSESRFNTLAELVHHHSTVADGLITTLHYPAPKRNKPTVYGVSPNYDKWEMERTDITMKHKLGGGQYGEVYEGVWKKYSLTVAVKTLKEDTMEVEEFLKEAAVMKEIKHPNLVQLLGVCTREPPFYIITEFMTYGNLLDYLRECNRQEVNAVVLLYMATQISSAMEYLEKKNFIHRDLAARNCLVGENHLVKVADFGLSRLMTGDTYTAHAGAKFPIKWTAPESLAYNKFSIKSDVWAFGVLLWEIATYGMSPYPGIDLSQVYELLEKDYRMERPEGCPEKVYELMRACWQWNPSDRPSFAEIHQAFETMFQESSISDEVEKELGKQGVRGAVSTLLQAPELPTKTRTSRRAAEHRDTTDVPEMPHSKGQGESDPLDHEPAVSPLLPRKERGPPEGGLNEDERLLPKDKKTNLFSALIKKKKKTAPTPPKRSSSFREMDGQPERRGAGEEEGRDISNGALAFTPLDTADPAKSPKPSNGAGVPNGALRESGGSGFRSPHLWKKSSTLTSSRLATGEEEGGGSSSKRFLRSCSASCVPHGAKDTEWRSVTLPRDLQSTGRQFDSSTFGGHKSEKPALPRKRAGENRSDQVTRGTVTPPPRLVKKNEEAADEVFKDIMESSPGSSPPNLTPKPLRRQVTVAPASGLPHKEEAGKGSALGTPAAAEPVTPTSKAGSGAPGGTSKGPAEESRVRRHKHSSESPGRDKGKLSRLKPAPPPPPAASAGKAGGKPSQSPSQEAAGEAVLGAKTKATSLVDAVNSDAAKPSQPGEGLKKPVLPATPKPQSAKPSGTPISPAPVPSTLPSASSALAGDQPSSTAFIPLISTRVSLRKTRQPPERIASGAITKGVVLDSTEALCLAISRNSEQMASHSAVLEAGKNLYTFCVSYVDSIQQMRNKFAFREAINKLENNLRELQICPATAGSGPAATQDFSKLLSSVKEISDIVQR

| Structure (SMILES) | IC50 (Colo205 cells) | also measured |
| --- | --- | --- |
| Cc1cc(Nc2cc(N3CCN(C4CC4)CC3)nc(Sc3ccc4nc(C(F)(F)F)cn4c3)n2)[nH]n1 [Compound I-14] | 100 to 1000 nM |  |
| Cc1cc(Nc2cc(N3CCN(C4CC4)CC3)nc(Sc3cc(F)c4nc(C)ccc4c3)n2)[nH]n1 [Compound I-15] | 100 to 1000 nM |  |
| Cc1cc(Nc2cc(N3CCN(CC(F)(F)F)CC3)nc(Sc3ccc4nc(C(F)(F)F)cn4c3)n2)[nH]n1 [Compound I-22] | 100 to 1000 nM |  |
| Cc1cc(Nc2cc(N3CCN(C(C)(C)CF)CC3)nc(Sc3cc(F)c4nc(C)ccc4c3)n2)[nH]n1 [Compound I-6] | 100 to 1000 nM |  |
| Cc1cc(Nc2cc(N3CCN(C(C)(C)CF)CC3)nc(Sc3ccc4nc(C(F)(F)F)n(C)c4c3)n2)[nH]n1 [Compound I-21] | 100 to 1000 nM |  |
| Cc1cc(Nc2cc(N3CCN(C(C)(C)CF)CC3)nc(Sc3ccc4nc(C(F)(F)F)cn4c3)n2)[nH]n1 [Compound I-11] | 100 to 1000 nM |  |
| Cc1cc(Nc2cc(N3CCN(CC(F)(F)F)CC3)nc(Sc3cc(F)c4nc(C)ccc4c3)n2)[nH]n1 [Compound I-23] | 100 to 1000 nM |  |
| Cc1cc(Nc2cc(N3CCN(C4CCN(C)CC4)CC3)nc(Sc3cc(F)c4nc(C)ccc4c3)n2)[nH]n1 [Compound I-13, 2-(8-fluoro-2-methylquinolin-6-ylthio)-N-(3-methyl-1H-pyrazol-5-yl)-6-(4-(1-methylpiperidin-4-yl)piperazin-1-yl)pyrimidin-4-amine] |  | Ki (Aurora-2 (Aurora A)): 1 to 2 nM; Ki (Aurora-1 (Aurora B)): 10 to 20 nM; Ki [1]: < 25 nM |
